Values of other authors in US20090082295A1, “COMBINATIONS AND METHODS OF USING AN IMMUNOMODULATORY OLIGODEOXYNUCLEOTIDE” (PFIZER INC., priority 2005, published 2009).
Counter-ions that a name gives are not always drawn.

How the values were obtained:
[1] = combination with cisplatin
[2] = test system: LX-1 human lung xenograft
[3] = test system: CALU-6 human lung xenograft
[4] = test system: Lewis lung murine xenograft
[5] = test system: xenotransplant models of colon cancer; conditions: nude (athymic) mice
[6] = test system: rat mammary carcinoma induced by dimethylbenzanthracene (DMBA)
[7] = test system: topoisomerase I purified from human and rodent tumor cell lines; conditions: purified enzyme
mitotic microtubules = conditions: intact tectal plates from mouse embryos
axonal microtubules = conditions: intact tectal plates from mouse embryos
mammalian cells = conditions: high concentrations

Nc1ccn([C@@H]2O[C@H](CO)[C@@H](O)C2(F)F)c(=O)n1 [Gemcitabine, 2′-deoxy-2′,2′-difluorocytidine monohydrochloride (β-isomer)]
activity with cisplatin in vitro [1]: dose-dependent synergistic activity | activity in combination with cisplatin [2]: showed activity | activity in combination with cisplatin [3]: showed activity | activity in combination with cisplatin (NCI-H460 xenograft): minimal activity | activity in combination with cisplatin (NCI-H520 xenograft): minimal activity | interaction with cisplatin [4]: synergistic

bevacizumab: recombinant humanized monoclonal IgG1 antibody that binds human VEGF
effect on microvascular growth and metastatic disease progression [5]: reduction of microvascular growth and inhibition of metastatic disease progression

CC/C(=C(\c1ccccc1)c1ccc(OCCN(C)C)cc1)c1ccccc1 [Tamoxifen, (Z)2-[4-(1,2-diphenyl-1-butenyl)phenoxy]-N, Ndimethylethanamine 2-hydroxy-1,2,3-propanetricarboxylate (1:1)]
effect on DMBA-induced mammary carcinoma [6]: inhibits the induction of rat mammary carcinoma induced by dimethylbenzanthracene (DMBA) and causes the regression of already established DMBA-induced tumors

CCc1c2c(nc3ccc(O)cc13)-c1cc3c(c(=O)n1C2)COC(=O)[C@]3(O)CC [SN-38]
potency as inhibitor of topoisomerase I relative to irinotecan [7]: approximately 1000 times

CC[C@]1(O)C[C@H]2CN(CCc3c([nH]c4ccccc34)[C@@](C(=O)OC)(c3cc4c(cc3OC)N(C=O)[C@H]3[C@@](O)(C(=O)OC)[C@H](OC(C)=O)[C@]5(CC)C=CCN6CC[C@]43[C@@H]65)C2)C1 [vincristine]
concentration inhibiting mitotic microtubule formation, inducing a blockade of cells at metaphase (mitotic microtubules): 2 µM | concentration producing depolymerization of axonal microtubules (axonal microtubules): 5 µM

CC[C@]1(O)C[C@@H]2CN(CCc3c([nH]c4ccccc34)[C@@](C(=O)OC)(c3cc4c(cc3OC)N(C)[C@H]3[C@@](O)(C(=O)OC)[C@H](OC(C)=O)[C@]5(CC)C=CCN6CC[C@]43[C@@H]65)C2)C1 [vinblastine]
concentration inhibiting mitotic microtubule formation, inducing a blockade of cells at metaphase (mitotic microtubules): 2 µM | concentration producing depolymerization of axonal microtubules (axonal microtubules): 30 µM

COc1cc([C@@H]2c3cc4c(cc3[C@@H](O[C@@H]3O[C@@H]5CO[C@@H](C)O[C@H]5[C@H](O)[C@H]3O)[C@H]3COC(=O)[C@H]23)OCO4)cc(OC)c1O [Etoposide, 4′-Demethylepipodophyllotoxin 9-[4,6-0-(R)-ethylidene-β-D-glucopyranoside]]
concentration at which lysis of cells entering mitosis is observed (mammalian cells): ≥ 10 µg/mL

CCC1=C[C@@H]2CN(C1)Cc1c([nH]c3ccccc13)[C@@](C(=O)OC)(c1cc3c(cc1OC)N(C)[C@H]1[C@@](O)(C(=O)OC)[C@H](OC(C)=O)[C@]4(CC)C=CCN5CC[C@]31[C@@H]54)C2 (relative stereo) [vinorelbine, 3′,4′-didehydro-4′-deoxy-C′-norvincaleukoblastine[R—(R*,R*)-2,3-dihydroxybutanedioate (1:2) (salt)]]
concentration inhibiting mitotic microtubule formation, inducing a blockade of cells at metaphase (mitotic microtubules): 2 µM | concentration producing depolymerization of axonal microtubules (axonal microtubules): 40 µM
